Legend:
Experiment in all cases: Herbicidal activity, post-emergence stem and leaf spray in greenhouse
Type in all cases: in vivo
Conditions in all cases: Post-emergence treatment
[1] = system: Setaria glauca (L.) Beauv.
From the text: (§1) Seeds of broadleaf weeds (Zinnia elegans Jacq. and Abutilon theophrasti Medic.) or grass weeds (Setaria glauca (L.) Beauv. and Echinochloa crusgalli (L.) Beauv.) were respectively sown in a paper cup having a diameter of 7 cm and containing nutrient soil. After sowing, the seeds were covered with 1 cm of soil, the soil was pressed and watered, and then the seeds were cultivated in a greenhouse according to a conventional method, and stems and leaves were sprayed after 2-3 leaf stage of the weeds.
(§2) The compounds of the present invention were dissolved in acetone, and then diluted with 0.1% aqueous solution of Tween 80 to form the test liquid. According to the design dose of the test, spray treatment was carried out by track sprayer (Engineer Research Ltd., pressure 1.95 kg/cm^2, volume 500 L/hm^2, track speed 1.48 km/h). The test was repeated for three times. The test material was treated and then placed in an operation hall. The medicinal liquid was naturally dried in the shade, and then was placed in a greenhouse and managed according to the conventional method. The response of the weeds to the drug was visually observed and recorded. After treatment, the state of growth of the respective weeds were visually observed regularly to determine the growth inhibition rate (%) in accordance with the following evaluation standard.
(§3) Growth inhibition rate (%): 0=no discernible action: 100=all weeds dead or not emerged.

[2] = system: Abutilon theophrasti Medic.
From the text: as §1, §2, §3

Zinnia elegans Jacq. = system: Zinnia elegans Jacq.
From the text: as §1, §2, §3

[3] = dose 37.5 g a.i./hm^2, Table 3 parallel test
[4] = dose 75 g a.i./hm^2, Table 3 parallel test

| Compound | growth inhibition rate % ([1]; dose 37.5 g a.i./hm^2, Table 2) [%] | growth inhibition rate % ([1]; dose 150 g a.i./hm^2, Table 2) [%] | growth inhibition rate % ([1]; dose 600 g a.i./hm^2, Table 2) [%] | growth inhibition rate % [2, 3] [%] | growth inhibition rate % [2, 4] [%] | growth inhibition rate % (Zinnia elegans Jacq.; [3]) [%] | growth inhibition rate % (Zinnia elegans Jacq.; [4]) [%] | growth inhibition rate % [1, 3] [%] | growth inhibition rate % [1, 4] [%] |
| --- | --- | --- | --- | --- | --- | --- | --- | --- | --- |
| CCn1nc(C(=O)Oc2c(C(=O)c3ccc(S(C)(=O)=O)c(OCC4CC4)c3C)c(C)nn2C)cc1C [Compound 1-20] | 65 | 100 | 100 | – | – | – | – | – | – |
| C=CCOc1c(S(C)(=O)=O)ccc(C(=O)c2c(C)nn(C)c2OC(=O)c2cc(C)n(CC)n2)c1C [Compound 1-26] | 75 | 100 | 100 | – | – | – | – | – | – |
| CCn1nc(C(=O)Oc2c(C(=O)c3ccc(S(C)(=O)=O)c(OCCOC)c3C)cnn2CC)cc1C [Compound 1-32] | 90 | 100 | 100 | 100 | 100 | 100 | 100 | 90 | 100 |
| CCn1nc(C(=O)Oc2c(C(=O)c3ccc(S(C)(=O)=O)c(OCCOC)c3C)c(C)nn2C)cc1C [Compound 1-33] | 70 | 100 | 100 | – | – | – | – | – | – |
| CCn1nc(C(=O)Oc2c(C(=O)c3ccc(S(C)(=O)=O)c(OCCOC)c3C)c(C)nn2C(C)C)cc1C [Compound 1-34] | 65 | 100 | 100 | – | – | – | – | – | – |
| CCc1nn(C)c(OC(=O)c2cc(C)n(CC)n2)c1C(=O)c1ccc(S(C)(=O)=O)c(OCCOC)c1C [Compound 1-36] | 70 | 100 | 100 | – | – | – | – | – | – |
| CCn1nc(C(=O)Oc2c(C(=O)c3ccc(S(C)(=O)=O)c(OCCOC)c3C)c(C)nn2CC)cc1C [Compound 1-37] | 100 | 100 | 100 | – | – | – | – | – | – |
| CCOCCOc1c(S(C)(=O)=O)ccc(C(=O)c2c(C)nn(C)c2OC(=O)c2cc(C)n(CC)n2)c1C [Compound 1-44] | 70 | 100 | 100 | – | – | – | – | – | – |
| CCn1nc(C)cc1C(=O)Oc1c(C(=O)c2ccc(S(C)(=O)=O)c(OCCOC)c2C)cnn1CC [Compound 1-139] | 80 | 100 | 100 | – | – | – | – | – | – |
| CCn1nc(C)cc1C(=O)Oc1c(C(=O)c2ccc(S(C)(=O)=O)c(OCCOC)c2C)c(C)nn1C [Compound 1-140] | 80 | 100 | 100 | – | – | – | – | – | – |
| CCn1ncc(C(=O)c2ccc(S(C)(=O)=O)c(COCC(F)(F)F)c2Cl)c1OC(=O)c1cn(C)nc1C [KC3, fenpyrazone, reference compound] | – | – | – | 30 | 95 | 40 | 50 | 60 | 70 |

Source: patent publication US20230138225A1, “PYRAZOLE CARBOXYLATE ESTER COMPOUND AND USE THEREOF” (SHENYANG SINOCHEM AGROCHEMICALS R&D CO., LTD., priority 2020, published 2023)
